According to patent publication US20090118135A1, “METHODS AND COMPOUNDS FOR REGULATING APOPTOSIS” (The Burnham Institute, priority 2007, published 2009):
Where “and” joins values, the source holds several entries; their conditions need not be identical. Equal entries are not always repeated. Where two headings read alike, the source gives them in different places.

Tests used:
[1] = biological target: GST-Bcl-2 (Homo sapiens, UniProt P10415); assay: Bcl-2/FITC-TR3 fluorescence polarization competition assay (PBS + Tween-20); settings: Hill coefficient of Bcl-2 dose-response curve
Chain of GST-Bcl-2 (P10415 1-218 limits assumed): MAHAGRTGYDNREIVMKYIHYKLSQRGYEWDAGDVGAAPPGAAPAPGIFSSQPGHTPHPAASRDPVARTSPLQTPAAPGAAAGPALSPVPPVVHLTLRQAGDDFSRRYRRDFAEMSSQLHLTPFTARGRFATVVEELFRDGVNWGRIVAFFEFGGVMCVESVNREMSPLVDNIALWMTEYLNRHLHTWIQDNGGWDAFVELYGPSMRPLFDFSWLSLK
Protocol: For the Chembridge screen, IC50s for each compound with respect to the Bcl-B/FITC-TR3 (In Hepes/β-glycerophophate/tween-20) fluorescence polarization and the Bcl-2/FITC-TR3 (In PBS+tween-20) fluorescence polarization assays were identified.
Fluorescence polarization was then measured using an Analyst HT Multi-Mode Plate Reader (LJL Biosystems, Sunnyvale, Calif.).

[2] = biological target: GST-Hsp70 (Homo sapiens, UniProt P0DMV8); assay: FITC-ATP/GST-Hsp70 fluorescence polarization counter-screen; format: binding; settings: HSP/FITC-ATP counter screen
Chain of GST-Hsp70 (P0DMV8 whole entry): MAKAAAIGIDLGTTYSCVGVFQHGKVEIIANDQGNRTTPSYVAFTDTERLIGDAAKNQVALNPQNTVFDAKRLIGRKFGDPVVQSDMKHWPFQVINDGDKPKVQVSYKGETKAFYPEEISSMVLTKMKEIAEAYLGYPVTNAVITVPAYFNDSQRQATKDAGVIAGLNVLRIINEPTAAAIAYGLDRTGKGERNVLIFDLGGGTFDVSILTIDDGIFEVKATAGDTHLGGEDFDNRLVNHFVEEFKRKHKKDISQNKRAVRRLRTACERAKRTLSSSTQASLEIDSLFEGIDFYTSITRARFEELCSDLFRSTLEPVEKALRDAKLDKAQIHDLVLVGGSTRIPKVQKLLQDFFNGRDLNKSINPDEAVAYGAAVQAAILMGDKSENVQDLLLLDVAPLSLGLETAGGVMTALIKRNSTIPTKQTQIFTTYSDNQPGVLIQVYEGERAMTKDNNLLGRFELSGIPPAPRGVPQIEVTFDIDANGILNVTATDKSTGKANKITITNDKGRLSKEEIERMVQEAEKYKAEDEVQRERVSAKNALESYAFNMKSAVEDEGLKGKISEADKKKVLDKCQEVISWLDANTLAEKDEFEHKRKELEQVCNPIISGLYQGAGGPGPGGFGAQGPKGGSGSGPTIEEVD
Protocol: Dose-response curves were then generated (fluorescent compounds were eliminated), followed by counter-screening using a biologically unrelated FPA (GST-Hsp70/FITC-ATP).
A number of assays were then performed to eliminate non-specific or irreproducible hits (FIG. 21). […] Second, compound dose-response curves were generated using the fluorescence polarization assay. […] Finally, 1D-NMR was used to test the compounds for binding to GST-Bcl-B versus GST (as a negative control) (FIG. 22).

[3] = biological target: T1, GST-Bcl-B (Homo sapiens, UniProt Q9HD36); assay: Bcl-B/FITC-TR3-r8 fluorescence polarization competition (displacement) assay, HTS and dose-response; settings: for Bcl-B H Coefficient: Hill coefficient of Bcl-B dose-response curve
T1 sequence (Q9HD36 1-182 limits assumed): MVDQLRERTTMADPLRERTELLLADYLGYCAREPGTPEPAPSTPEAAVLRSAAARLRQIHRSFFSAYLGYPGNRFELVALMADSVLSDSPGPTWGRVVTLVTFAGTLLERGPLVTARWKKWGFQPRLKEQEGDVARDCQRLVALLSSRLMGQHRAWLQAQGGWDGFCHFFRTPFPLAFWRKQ

[4] = biological target: T1, GST-Bcl-B; assay: biochemical
[5] = biological target: T1, GST-Bcl-B; assay: 1D 1H-NMR compound binding, GST-Bcl-B; design: their C-terminal transmembrane domains (˜20 amino acids) were deleted to enhance protein solubility; made in house; host or cells: E. coli (BL21 Star (DE3); XL-1 Blue), pGEX-4T-1; settings: result in words
Protocol: (§1) FIGS. 22A-22F are line graphs showing a ^1H-NMR spectra confirmation of compound binding to Bcl-B. Compounds 5804000, 5954623, and 2011727 were diluted in PBS/D2O buffer to 1000 μM, then incubated with either GST (FIGS. 22A, C, E) or GST-Bcl-B (FIGS. 22B, D, F) at 0, 10 or 20 μM concentrations. FIGS. 22A-B show compound 5804000; FIGS. 22C-D show compound 5954623; and FIGS. 22E-F show the NMR spectra for the negative control compound 2011727. The most prominent peak shift for each compound is shown.
(§2) NMR experiments were performed at 25° C. on a 500 MHz Bruker Avance spectrometer (Bruker, Madison, Wis.) equipped with a 5 mm TXI probe. […] Reference solutions were then used in titration experiments with GST-Bcl-B or GST. All ^1H NMR spectra were obtained with the carrier position set to the water peak signal using WATERGATE. NMR data were processed and analyzed with MestRe Nova (MestReLab Research, Santiago de Compostela, Spain).

[6] = biological target: T2, GST (Schistosoma japonicum, UniProt P08515); assay: 1D 1H-NMR compound binding, GST negative control; settings: negative control protein; result in words
T2 construct: made in house; host or cells: Escherichia coli BL21 Star (DE3), pGEX-4T-1
T2 sequence (P08515 whole entry): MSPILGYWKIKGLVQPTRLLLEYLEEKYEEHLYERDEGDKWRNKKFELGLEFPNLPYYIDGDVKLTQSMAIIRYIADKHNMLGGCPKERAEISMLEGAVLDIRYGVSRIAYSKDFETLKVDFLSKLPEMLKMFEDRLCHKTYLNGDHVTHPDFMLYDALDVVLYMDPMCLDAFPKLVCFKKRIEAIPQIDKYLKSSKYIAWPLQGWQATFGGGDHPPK
Protocol: as §1, §2

[7] = biological target: T1, GST-Bcl-B; assay: FITC-Puma-BH3/GST-Bcl-B fluorescence polarization displacement assay; format: binding; design: their C-terminal transmembrane domains (˜20 amino acids) were deleted to enhance protein solubility; made in house; host or cells: E. coli (BL21 Star (DE3); XL-1 Blue), pGEX-4T-1; settings: FIG. 23C; result in words
[8] = biological target: T1, GST-Bcl-B; assay: FITC-Bim-BH3/GST-Bcl-B fluorescence polarization displacement assay; format: binding; design: their C-terminal transmembrane domains (˜20 amino acids) were deleted to enhance protein solubility; made in house; host or cells: E. coli (BL21 Star (DE3); XL-1 Blue), pGEX-4T-1; settings: FIG. 23D; result in words
[9] = test system: HeLa Tet-On-Bcl-B (HTO2) cells; assay: Cell viability (ATPlite) in HeLa Tet-On-Bcl-B cells with or without doxycycline; format: cell-based; settings: 24 h, read-out: concentration required to reduce HeLa Tet-On-Bcl-B cell viability by 50%
Protocol: FIG. 24A is a photograph of a blot wherein HeLa Tet-On (HTO1) and HeLa Tet-On-Bcl-B (HTO2) cells were treated with or without doxycycline (dox) for 24 h to induce their tetracycline-responsive promoters. Protein lysates were collected, and immunoblotting was used to analyze Bcl-B and Hsc70 (for loading control) expression. In FIG. 24B the cells were treated with or without doxycycline for 24 h, and then with staurosporine at the indicated concentrations for 24 h. Cell viability was measured using ATPlite. In FIG. 24C HeLa Tet-On-Bcl-B (HTO2) cells were treated with or without doxacycline as above. Compounds were then added at the indicated concentrations, and cell viability was measured 24 h later using ATPlite. The data shown represent mean±standard deviation (n=3).
HeLa Tet-On-Bcl-B cells were generated by stably transfecting the HeLa Tet-On cell line (Clontech, Mountain View, Calif.) with a pTRE2hyg vector (Clontech) containing the Bcl-B gene, using lipofectAMINE PLUS (Invitrogen, Carlsbad, Calif.). Briefly, cells were seeded overnight and transfected at 50% confluency for 3 h. After 24 h, the cells were re-seeded at <10% confluence and cultured in media (DMEM with 10% Tet System Approved FBS (Clontech)) containing G418 (100 μg/mL) and hygromycin B (300 μg/mL) for pTet-On and pTRE2hyg/Bcl-B plasmid maintenance, respectively. Positive foci resistant to both antibiotics were expanded. Colonies were then cultured in the presence or absence of doxycycline (Clontech, 1 μg/mL) for 16 h, and induced Bcl-B expression was confirmed by Western blot analysis. A previously developed polyclonal Bcl-B antibody^17 and an Hsc70 antibody (for protein concentration comparison; Santa Cruz Biotechnology, Santa Cruz, Calif.) were used.
Cells were seeded in 96-well plates at 5,000 cells/well in 100 μL of growth medium and allowed to incubate for 24 h. Afterwards, cells were incubated in the presence or absence of doxycycline (1 μg/mL) for another 24 h (to induce Bcl-B expression). Compounds were then added, as indicated, in a volume of 5 μL. The next day, cell viability was measured using the ATPlite Luminescence ATP Detection System (PerkinElmer, Waltham, Mass.) according to the manufacturer's specifications.

SMILES: Nc1ccc(Oc2ccc(N)c(N)c2)cc1N [Compound 5152592]
- Bcl-2 H Coefficient [1]: 1.428
- HSP70 IC50 (Hill) [2]: High
- IC50 ([3]; Bcl-B IC50 (g/L)): 5.37 µM
- IC50 ([3]; Bcl-B IC50 (uM)): 5.37 µM
- Bcl-B H Coefficient [3]: 1.303

SMILES: O=C(O)C1Nc2c(Cl)cc(Cl)cc2C2C=CCC12 (stereo not shown) [Compound 5736518]
- IC50 [4]: 1.03 µM
- Bcl-2 H Coefficient [1]: 2.956
- IC50 ([2]; read-out: HSP70 IC50 (Hill) (converted)): 37 µM
- Bcl-B H Coefficient [3]: 1.13

SMILES: Cc1ccc(C)n1-c1ccc(Br)cc1C(=O)O [Compound 5954623]
- binding to GST-Bcl-B by 1D-NMR [5]: bound to GST-Bcl-B in a concentration dependent manner
- binding to GST by 1D-NMR [6]: did not bind to GST
- IC50 [4]: 15.6 µM and 16.3 µM
- displacement of FITC-Puma-BH3 from GST-Bcl-B [7]: displaced FITC-Puma-BH3
- EC50 [3]: 2.1 µM
- Bcl-B H Coefficient [3]: 1.233
- displacement of FITC-Bim-BH3 from GST-Bcl-B [8]: displaced FITC-Bim-BH3

SMILES: Clc1ccc(C2C=C(c3ccccc3)Nc3ncnn32)cc1 (stereo not shown) [Compound 5223675]
- IC50 [4]: 14.2 µM
- HSP70 IC50 (Hill) [2]: high
- Bcl-B H Coefficient [3]: 0.939

SMILES: O=C(O[C@@H]1Cc2c(O)cc(O)cc2O[C@@H]1c1cc(O)c(O)c(O)c1)c1cc(O)c(O)c(O)c1 [EGCG, epigallecatechin]
- IC50 ([9]; in the absence of Bcl-B (without doxycycline)): 79 µM
- IC50 ([9]; in the presence of Bcl-B (with doxycycline)): ~93 µM
- displacement of FITC-TR3-r8 from GST-Bcl-B ([3]; result in words): none of these reagents displaced FITC-TR3-r8

SMILES: Cc1cc(C)nc(NC(=N)Nc2cccc(N)c2)n1 [Compound 5804000]
- binding to GST-Bcl-B by 1D-NMR [5]: bound to GST-Bcl-B in a concentration dependent manner
- IC50 ([9]; Homo sapiens, HeLa, in the absence of Bcl-B (without doxycycline)): ~148 µM
- IC50 ([9]; Homo sapiens, HeLa, in the presence of Bcl-B (with doxycycline)): ~226 µM
- binding to GST by 1D-NMR [6]: did not bind to GST
- IC50 [4]: 11.3 µM
- displacement of FITC-Puma-BH3 from GST-Bcl-B [7]: did not
- EC50 [3]: 5.6 µM
- Bcl-B H Coefficient [3]: 1.599
- displacement of FITC-Bim-BH3 from GST-Bcl-B [8]: did not
